This is an account of results in ChEMBL document CHEMBL1201862, “PubChem BioAssay data set” (2004).

Among the test systems are OVCAR-5; U-251; SR; T47D; HCT-116; RPMI-8226; HOP-62; MDA-MB-231; K562; UO-31; SNB-75; MCF7; KM12; MDA-N; SF-539; OVCAR-3; SF-295; CCRF-CEM; UACC-62; SK-OV-3.
What all share (experiment): DTP human tumour cell line panel, 48 h

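Where inhibition never reached the appropriate level, the endpoint shown equals the highest concentration tested. Otherwise, values were interpolated linearly from a five-concentration, 48-hour dose response in 96-well plates. The concentration for 50% growth inhibition is given as GI50.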 Activity calls are given as the source filed them. No stated cut-off is given here; in the data, active = GI50 up to about 1.1 µM and inactive = higher. Non-standard residues stand in square brackets, D forms with d. Residues, ends and D or L forms follow the SMILES beside them. *: point of attachment. Cbz = O=C(OCc1ccccc1)*; Boc = CC(C)(C)OC(=O)*; Aib = CC(C)(N)C(=O)O; OBn = c1ccc(CO*)cc1; OtBu = CC(C)(C)O*; βAla = NCCC(=O)O

As a reminder, the GI50 is the concentration at which growth is held to half of that of the control. Take `CS(=O)(=O)OCC1CN(S(C)(=O)=O)c2cc(O)ccc21` (stereo not drawn): the GI50 is 2.84 µM (inactive) with OVCAR-5; 2.36 µM (inactive) in the assay on U-251; 2.05 µM (inactive) in the assay on SR; 0.498 µM (active) in the assay on T47D; 2.77 µM (inactive) in the assay with HCT-116; 1.87 µM (inactive) in the assay on RPMI-8226. Moreover, the GI50 is 2.47 µM (inactive) with HOP-62; 2.3 µM (inactive) in the assay on MDA-MB-231; 2.43 µM (inactive) in the assay with K562; 3.26 µM (inactive) with UO-31; 2.37 µM (inactive) with SNB-75; 1.53 µM (inactive) with MCF7. In addition, the GI50 is 2.96 µM (inactive) in the assay on KM12; 1.91 µM (inactive) in the assay on MDA-N; 2.42 µM (inactive) in the assay with SF-539; 2.82 µM (inactive) with OVCAR-3; 3.42 µM (inactive) in the assay with SF-295; 1.01 µM (active) in the assay on CCRF-CEM.

As to `COC(=O)[C@@H](NS(=O)(=O)CC12CCC(CC1)C2(C)C)C(C)(C)C`, the GI50 is > 100 µM (inactive) with UACC-62; > 100 µM (inactive) in the assay on OVCAR-5; > 100 µM (inactive) with U-251; 23.3 µM (inactive) in the assay with SR; > 100 µM (inactive) in the assay with SK-OV-3; > 100 µM (inactive) in the assay with T47D. The GI50 in the assay on HCT-116, with MDA-MB-231, in the assay on K562, with UO-31, in the assay with SNB-75 and in the assay with MCF7 was > 100 µM (inactive) throughout. Further, the GI50 in the assay with KM12, in the assay on MDA-N, in the assay on SF-539, with OVCAR-3, in the assay on SF-295 and in the assay with CCRF-CEM was > 100 µM (inactive) throughout.

With `O=C(CC(C(=O)c1cccs1)c1ccc2c(c1)OCO2)c1ccccc1` (stereo not drawn), the GI50 is > 100 µM (inactive) with UACC-62; > 100 µM (inactive) in the assay with U-251; 70.1 µM (inactive) in the assay on SR; > 100 µM (inactive) with SK-OV-3; 52.7 µM (inactive) in the assay on T47D; 50.5 µM (inactive) in the assay with HCT-116. Besides, the GI50 with RPMI-8226, in the assay with HOP-62, in the assay on MDA-MB-231, with UO-31, with SNB-75 and in the assay with MCF7 was > 100 µM (inactive) in each case. Also, the GI50 in the assay on KM12, in the assay with MDA-N, in the assay with SF-539, with OVCAR-3 and in the assay on SF-295 was > 100 µM (inactive) each time.

`CCN(CC)CCOc1ccc(N2C(=O)c3cccc4cc([N+](=O)[O-])cc(c34)C2=O)cc1`: the GI50 in the assay on OVCAR-5 is 2.88 µM (inactive); in the assay with U-251 it was 10.8 µM (inactive); with SR, 0.372 µM (active); in the assay with T47D, 19.7 µM (inactive); in the assay with HCT-116, 3.88 µM (inactive); with HOP-62 it was 1.14 µM (inactive). Also, the GI50 in the assay with MDA-MB-231 is 18.8 µM (inactive); in the assay with UO-31, 9.12 µM (inactive); in the assay on SNB-75 it was 14.5 µM (inactive); with MCF7 it was 3.56 µM (inactive); in the assay on KM12, 12.5 µM (inactive); in the assay on MDA-N, 14.6 µM (inactive). The GI50 with SF-539 is 9.02 µM (inactive); in the assay on SF-295, 6.55 µM (inactive); in the assay on CCRF-CEM, 4.23 µM (inactive).

In the case of `Cc1cc(-c2nc3ccccc3s2)ccc1NC(=O)[C@@H](N)CCCCN`, the GI50 with UACC-62 is 13.8 µM (inactive); in the assay on OVCAR-5 it was 12.5 µM (inactive); in the assay with U-251, 4.59 µM (inactive); in the assay with SR, 3.24 µM (inactive); in the assay with SK-OV-3, 13.5 µM (inactive); in the assay on T47D, < 0.0247 µM (active). Besides, the GI50 is 6.22 µM (inactive) in the assay with HCT-116; 11.8 µM (inactive) with HOP-62; 9.04 µM (inactive) in the assay on MDA-MB-231; 7.01 µM (inactive) in the assay with K562; 6.71 µM (inactive) in the assay on UO-31; 3.68 µM (inactive) with SNB-75. The GI50 with MCF7 is < 0.0301 µM (active); in the assay with KM12 it was 2.82 µM (inactive); with MDA-N, 5.04 µM (inactive); in the assay on OVCAR-3 it was 12.9 µM (inactive); in the assay with SF-295, 5.07 µM (inactive); with CCRF-CEM it was 6.92 µM (inactive).

For the compound `CCOC(=O)N/N=C(/N)c1cccc(Br)c1`, the GI50 with UACC-62, in the assay with OVCAR-5, with SR, in the assay with SK-OV-3, in the assay with T47D and with HCT-116 was > 100 µM (inactive) each time. The GI50 in the assay with HOP-62 is > 100 µM (inactive); in the assay on MDA-MB-231 it was > 100 µM (inactive); in the assay on K562, > 100 µM (inactive); in the assay on UO-31, 56.1 µM (inactive); with SNB-75, > 100 µM (inactive); in the assay with MCF7, > 100 µM (inactive). Moreover, the GI50 in the assay on KM12, in the assay with MDA-N, in the assay on SF-539, in the assay with OVCAR-3, in the assay with SF-295 and in the assay with CCRF-CEM was > 100 µM (inactive) each time.

Turning to `O=c1[nH]nc(-c2ccccc2)n1O`, the GI50 with UACC-62, in the assay with OVCAR-5, with U-251, with SR, with SK-OV-3 and in the assay on T47D was > 100 µM (inactive) in each case. Moreover, the GI50 in the assay with HCT-116, with RPMI-8226, in the assay with HOP-62, in the assay on MDA-MB-231, with K562 and with UO-31 was > 100 µM (inactive) in each case. In addition, the GI50 in the assay on MCF7, in the assay on KM12, in the assay with MDA-N, in the assay with SF-539, with OVCAR-3 and in the assay with SF-295 was > 100 µM (inactive) in each case. Further, the GI50 in the assay with CCRF-CEM was > 100 µM (inactive).

On to `COc1cc(C)cc(C(=O)/C=C/c2ccccc2)c1O`, for which the GI50 in the assay with UACC-62 was 17.1 µM (inactive); in the assay on OVCAR-5, 13.8 µM (inactive); in the assay with U-251, 17.2 µM (inactive); in the assay on SR, 30.9 µM (inactive); in the assay with SK-OV-3 it was 29.2 µM (inactive); in the assay on T47D it was 11.1 µM (inactive). The GI50 in the assay with HCT-116 is 17.7 µM (inactive); in the assay on RPMI-8226, 21.2 µM (inactive); with HOP-62 it was 16.7 µM (inactive); with MDA-MB-231 it was 22.5 µM (inactive); in the assay on K562, 40.6 µM (inactive); in the assay with UO-31 it was 17.8 µM (inactive). For the same compound, the GI50 is 24.5 µM (inactive) in the assay with SNB-75; 12.1 µM (inactive) with MCF7; 18.5 µM (inactive) with KM12; 23.7 µM (inactive) in the assay with MDA-N; 16.5 µM (inactive) in the assay with OVCAR-3; 20.9 µM (inactive) with SF-295. The GI50 in the assay with CCRF-CEM was 27.7 µM (inactive).

`COCC#C[C@@]1(O)CCCCC1CC(OC)OC` (stereo partly drawn): the GI50 with UACC-62 is 34.9 µM (inactive); with OVCAR-5, > 100 µM (inactive); with U-251, > 100 µM (inactive); in the assay with SR, 40.3 µM (inactive); in the assay on SK-OV-3, > 100 µM (inactive); in the assay with T47D, > 100 µM (inactive). The GI50 in the assay with HCT-116 is 81.8 µM (inactive); in the assay with RPMI-8226, 32.4 µM (inactive); in the assay on HOP-62 it was > 100 µM (inactive); in the assay on MDA-MB-231, > 100 µM (inactive); with K562, 49.7 µM (inactive); in the assay with UO-31, > 100 µM (inactive). Moreover, the GI50 was > 100 µM (inactive) in the assay on SNB-75; 60 µM (inactive) in the assay with MCF7; > 100 µM (inactive) in the assay with KM12; > 100 µM (inactive) with MDA-N; > 100 µM (inactive) in the assay on SF-295; 38.5 µM (inactive) with CCRF-CEM.

For `COc1cc(-c2oc3c(OC)cc(OC)c(O)c3c(=O)c2OC)cc(OC)c1OC`, the GI50 with UACC-62 was 23.6 µM (inactive); with OVCAR-5 it was > 100 µM (inactive); in the assay on U-251, 4.65 µM (inactive); with SR, > 100 µM (inactive); in the assay on SK-OV-3, 3.29 µM (inactive); in the assay on T47D, 3.76 µM (inactive). In addition, the GI50 in the assay with HCT-116 is 4.32 µM (inactive); in the assay on RPMI-8226 it was > 100 µM (inactive); with HOP-62 it was 2.06 µM (inactive); in the assay with MDA-MB-231, 2.84 µM (inactive); in the assay on K562, > 100 µM (inactive); in the assay with UO-31, 33 µM (inactive). Further, the GI50 was 1.73 µM (inactive) in the assay with SNB-75; 97.1 µM (inactive) in the assay with MCF7; > 100 µM (inactive) with KM12; > 100 µM (inactive) with MDA-N; 8.57 µM (inactive) in the assay with SF-539; 4.79 µM (inactive) with OVCAR-3. The GI50 in the assay on SF-295 is 2.59 µM (inactive).

Consider `CC(C)(C)OC(=O)CC(NC(=O)OC(C)(C)C)C(=O)NC(CCCCNC(=O)OCc1ccccc1)C(=O)NC(C)(C)C(=O)NCCC(=O)OCc1ccccc1` (stereo not drawn) (Boc-D(OtBu)K(Cbz)[Aib][βAla]-OBn; configuration not given here), for which the GI50 with UACC-62, with OVCAR-5, in the assay on U-251, in the assay with SR, in the assay with SK-OV-3 and in the assay with T47D was > 100 µM (inactive) in each case. Also, the GI50 in the assay on HCT-116, with RPMI-8226, with HOP-62, in the assay on MDA-MB-231, in the assay on K562 and with UO-31 was > 100 µM (inactive) in each case. Besides, the GI50 in the assay on SNB-75, with MCF7, in the assay on KM12, with MDA-N, in the assay on SF-539 and with OVCAR-3 was > 100 µM (inactive) throughout. Also, the GI50 in the assay with SF-295 is > 100 µM (inactive).
